According to ChEMBL document CHEMBL1201861, “Genomics of Drug Sensitity in Cancer screening data, Wellcome Trust Sanger Institute”:

Assays:
Assay in all cases: cells
CW-2 = assay type: functional, cell-based, Homo sapiens; settings: Homo sapiens, CW-2;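 note: growth inhibition of CW-2 cells, read out by a cell viability assay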
Description: SANGER: Inhibition of human CW-2 cell growth in a cell viability assay.

Calu-6 = assay type: functional, cell-based, Homo sapiens; settings: Homo sapiens, Calu-6;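 note: growth of human Calu-6 cells, read out by a cell viability assay, IC50 marking inhibition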
Description: SANGER: Inhibition of human Calu-6 cell growth in a cell viability assay.

D-263MG = assay type: functional, cell-based, Homo sapiens; settings: Homo sapiens, D-263MG
Description: SANGER: Inhibition of human D-263MG cell growth in a cell viability assay.

DB = assay type: functional, cell-based, Homo sapiens; settings: Homo sapiens, DB
Description: SANGER: Inhibition of human DB cell growth in a cell viability assay.

DEL = assay type: functional, cell-based, Homo sapiens; settings: Homo sapiens, DEL;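 note: growth inhibition of the human DEL cell line, read out with a cell viability assay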
Description: SANGER: Inhibition of human DEL cell growth in a cell viability assay.

GI-1 = assay type: functional, cell-based, Homo sapiens; settings: Homo sapiens, GI-1;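 note: growth inhibition of human GI-1 cells, measured with a cell viability readout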
Description: SANGER: Inhibition of human GI-1 cell growth in a cell viability assay.

GT3TKB = assay type: functional, cell-based, Homo sapiens; settings: Homo sapiens, GT3TKB;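 note: growth inhibition of the cell line, read out with a cell viability assay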
Description: SANGER: Inhibition of human GT3TKB cell growth in a cell viability assay.

HCE-T = assay type: functional, cell-based, Homo sapiens; settings: Homo sapiens, HCE-T;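 note: cell viability assay read-out, reporting inhibition of HCE-T cell growth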
Description: SANGER: Inhibition of human HCE-T cell growth in a cell viability assay.

HT = assay type: functional, cell-based, Homo sapiens; settings: Homo sapiens, HT
Description: SANGER: Inhibition of human HT cell growth in a cell viability assay.

HuTu80 = assay type: functional, cell-based, Homo sapiens, HUTU-80; settings: Homo sapiens, HuTu80;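 note: growth inhibition of HuTu80 human cells, determined with a cell viability readout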
Description: SANGER: Inhibition of human HUTU-80 cell growth in a cell viability assay.

JAR = assay type: functional, cell-based, Homo sapiens; settings: Homo sapiens, JAR;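 note: growth inhibition of human JAR cells determined with a cell viability assay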
Description: SANGER: Inhibition of human JAR cell growth in a cell viability assay.

JVM-2 = assay type: functional, cell-based, Homo sapiens; settings: Homo sapiens, JVM-2;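 note: growth inhibition of JVM-2 cells determined by a cell viability assay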
Description: SANGER: Inhibition of human JVM-2 cell growth in a cell viability assay.

KE-37 = assay type: functional, cell-based, Homo sapiens; settings: Homo sapiens, KE-37;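 note: growth inhibition of KE-37 cells, read out with a cell viability assay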
Description: SANGER: Inhibition of human KE-37 cell growth in a cell viability assay.

KG-1 = assay type: functional, cell-based, Homo sapiens; settings: Homo sapiens, KG-1;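 note: growth inhibition of KG-1 cells, read out by a cell viability assay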
Description: SANGER: Inhibition of human KG-1 cell growth in a cell viability assay.

KP-N-YS = assay type: functional, cell-based, Homo sapiens; settings: Homo sapiens, KP-N-YS;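 note: cell viability assay measuring inhibition of cell line growth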
Description: SANGER: Inhibition of human KP-N-YS cell growth in a cell viability assay.

KU812 cell line = assay type: functional, cell-based, Homo sapiens; settings: Homo sapiens, KU812;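 note: growth inhibition of KU812 cells, read out with a cell viability assay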
Description: SANGER: Inhibition of human KU812 cell growth in a cell viability assay.

KURAMOCHI = assay type: functional, cell-based, Homo sapiens; settings: Homo sapiens, KURAMOCHI;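 note: growth inhibition of KURAMOCHI cells, read out with a cell viability assay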
Description: SANGER: Inhibition of human KURAMOCHI cell growth in a cell viability assay.

L-428 = assay type: functional, cell-based, Homo sapiens; settings: Homo sapiens, L-428
Description: SANGER: Inhibition of human L-428 cell growth in a cell viability assay.

LB2518-MEL = assay type: functional, cell-based, Homo sapiens; settings: Homo sapiens, LB2518-MEL;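 note: growth inhibition of human LB2518-MEL cells, measured with a cell viability assay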
Description: SANGER: Inhibition of human LB2518-MEL cell growth in a cell viability assay.

LC-2-ad = assay type: functional, cell-based, Homo sapiens; settings: Homo sapiens, LC-2-ad;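 note: growth inhibition of human LC-2-ad cells, read out with a cell viability assay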
Description: SANGER: Inhibition of human LC-2-ad cell growth in a cell viability assay.

LNCaP-Clone-FGC = assay type: functional, cell-based, Homo sapiens; settings: Homo sapiens, LNCaP-Clone-FGC
Description: SANGER: Inhibition of human LNCaP-Clone-FGC cell growth in a cell viability assay.

LS-513 = assay type: functional, cell-based, Homo sapiens; settings: Homo sapiens, LS-513
Description: SANGER: Inhibition of human LS-513 cell growth in a cell viability assay.

LU-134-A = assay type: functional, cell-based, Homo sapiens; settings: Homo sapiens, LU-134-A
Description: SANGER: Inhibition of human LU-134-A cell growth in a cell viability assay.

Lu-65 = assay type: functional, cell-based, Homo sapiens; settings: Homo sapiens, Lu-65;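 note: growth inhibition of Lu-65 cancer cells, read out by a cell viability assay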
Description: SANGER: Inhibition of human LU-65 cell growth in a cell viability assay.

MC116 = assay type: functional, cell-based, Homo sapiens; settings: Homo sapiens, MC116;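 note: growth inhibition of MC116 cells, read out with a cell viability assay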
Description: SANGER: Inhibition of human MC116 cell growth in a cell viability assay.

MHH-PREB-1 = assay type: functional, cell-based, Homo sapiens; settings: Homo sapiens, MHH-PREB-1;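 note: cell viability assay measuring inhibition of proliferation of human MHH-PREB-1 cells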
Description: SANGER: Inhibition of human MHH-PREB-1 cell growth in a cell viability assay.

MLMA = assay type: functional, cell-based, Homo sapiens; settings: Homo sapiens, MLMA;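 note: growth inhibition of MLMA cells (human), determined through a cell viability readout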
Description: SANGER: Inhibition of human MLMA cell growth in a cell viability assay.

MMAC-SF = assay type: functional, cell-based, Homo sapiens; settings: Homo sapiens, MMAC-SF;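 note: growth inhibition of human MMAC-SF cells, read out with a cell viability assay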
Description: SANGER: Inhibition of human MMAC-SF cell growth in a cell viability assay.

MZ2-MEL = assay type: functional, cell-based, Homo sapiens; settings: Homo sapiens, MZ2-MEL;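 note: growth inhibition of MZ2-MEL cells read out with a cell viability assay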
Description: SANGER: Inhibition of human MZ2-MEL cell growth in a cell viability assay.

MZ7-mel = assay type: functional, cell-based, Homo sapiens; settings: Homo sapiens, MZ7-mel;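 note: growth inhibition of human MZ7-mel cells, measured by a cell viability assay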
Description: SANGER: Inhibition of human MZ7-mel cell growth in a cell viability assay.

NB12 = assay type: functional, cell-based, Homo sapiens; settings: Homo sapiens, NB12;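 note: growth inhibition of human NB12 cells, read out by a cell viability assay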
Description: SANGER: Inhibition of human NB12 cell growth in a cell viability assay.

NB5 = assay type: functional, cell-based, Homo sapiens; settings: Homo sapiens, NB5;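 note: growth inhibition of NB5 cells, read out as cell viability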
Description: SANGER: Inhibition of human NB5 cell growth in a cell viability assay.

NB69 = assay type: functional, cell-based, Homo sapiens; settings: Homo sapiens, NB69;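 note: growth inhibition of NB69 cells, determined by a cell viability assay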
Description: SANGER: Inhibition of human NB69 cell growth in a cell viability assay.

NCI-H446 = assay type: functional, cell-based, Homo sapiens; settings: Homo sapiens, NCI-H446;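 note: growth inhibition of NCI-H446 cells determined by a cell viability assay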
Description: SANGER: Inhibition of human NCI-H446 cell growth in a cell viability assay.

NKM-1 = assay type: functional, cell-based, Homo sapiens; settings: Homo sapiens, NKM-1;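 note: growth inhibition of NKM-1 cells, read out with a cell viability assay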
Description: SANGER: Inhibition of human NKM-1 cell growth in a cell viability assay.

OMC-1 = assay type: functional, cell-based, Homo sapiens; settings: Homo sapiens, OMC-1;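 note: growth inhibition of the OMC-1 cell line, measured by a cell viability assay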
Description: SANGER: Inhibition of human OMC-1 cell growth in a cell viability assay.

ONS-76 = assay type: functional, cell-based, Homo sapiens; settings: Homo sapiens, ONS-76;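 note: growth inhibition of human ONS-76 cells, read out with a cell viability assay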
Description: SANGER: Inhibition of human ONS-76 cell growth in a cell viability assay.

RCC10RGB = assay type: functional, cell-based, Homo sapiens; settings: Homo sapiens, RCC10RGB;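 note: growth inhibition of human RCC10RGB cells, read out by a cell viability assay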
Description: SANGER: Inhibition of human RCC10RGB cell growth in a cell viability assay.

SF-539 = assay type: functional, cell-based, Homo sapiens; settings: Homo sapiens, SF-539;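 note: Read-out is a cell viability assay, with IC50 reflecting inhibition of cell growth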
Description: SANGER: Inhibition of human SF539 cell growth in a cell viability assay.

SK-UT-1 = assay type: functional, cell-based, Homo sapiens; settings: Homo sapiens, SK-UT-1;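 note: growth inhibition of SK-UT-1 cells, measured by a cell viability assay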
Description: SANGER: Inhibition of human SK-UT-1 cell growth in a cell viability assay.

SNB-75 = assay type: functional, cell-based, Homo sapiens; settings: Homo sapiens, SNB-75;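 note: cell viability assay measuring growth inhibition of human SNB-75 cells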
Description: SANGER: Inhibition of human SNB75 cell growth in a cell viability assay.

SW872 = assay type: functional, cell-based, Homo sapiens; settings: Homo sapiens, SW872;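 note: growth inhibition of SW872 cells, read out by a viability assay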
Description: SANGER: Inhibition of human SW872 cell growth in a cell viability assay.

TE-1 = assay type: functional, cell-based, Homo sapiens; settings: Homo sapiens, TE-1;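 note: growth inhibition of the human TE-1 cell line, read out with a cell viability assay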
Description: SANGER: Inhibition of human TE-1 cell growth in a cell viability assay.

697 = assay type: functional, cell-based, Homo sapiens; settings: Homo sapiens
Description: SANGER: Inhibition of human 697 cell growth in a cell viability assay.

A101D = assay type: functional, cell-based, Homo sapiens; settings: Homo sapiens, A101D;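 note: growth inhibition of the cell line, measured with a viability assay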
Description: SANGER: Inhibition of human A101D cell growth in a cell viability assay.

A253 cell line = assay type: functional, cell-based, Homo sapiens; settings: Homo sapiens, A253;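 note: growth inhibition of A253 cells, read out with a cell viability assay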
Description: SANGER: Inhibition of human A253 cell growth in a cell viability assay.

ACN = assay type: functional, cell-based, Homo sapiens; settings: Homo sapiens, ACN;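 note: growth inhibition of the human ACN cell line, read out via cell viability testing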
Description: SANGER: Inhibition of human ACN cell growth in a cell viability assay.

C8166 = assay type: functional, cell-based, Homo sapiens; settings: Homo sapiens, C8166;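 note: growth inhibition of human C8166 cells measured by a cell viability assay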
Description: SANGER: Inhibition of human C8166 cell growth in a cell viability assay.

TE-8 = assay type: functional, cell-based, Homo sapiens; settings: Homo sapiens, TE-8;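 note: growth inhibition of TE-8 cells, measured with a cell viability readout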
Description: SANGER: Inhibition of human TE-8 cell growth in a cell viability assay.

COLO-668 = assay type: functional, cell-based, Homo sapiens; settings: Homo sapiens, COLO-668
Description: SANGER: Inhibition of human COLO-668 cell growth in a cell viability assay.

COc1cc(N2CCN(C)CC2)ccc1Nc1ncc2c(n1)N(C)c1ccccc1C(=O)N2C
IC50 (CW-2): > 8 µM | IC50 (Calu-6): > 8 µM | IC50 (D-263MG): > 8 µM | IC50 (DB): > 8 µM | IC50 (DEL): > 8 µM | IC50 (GI-1): > 8 µM | IC50 (GT3TKB): > 8 µM | IC50 (HCE-T): > 8 µM | IC50 (HT): > 8 µM | IC50 (HuTu80): > 8 µM | IC50 (JAR): > 8 µM | IC50 (JVM-2): > 8 µM | IC50 (KE-37): > 8 µM | IC50 (KG-1): > 8 µM | IC50 (KP-N-YS): > 8 µM | IC50 (KU812 cell line): 7.43 µM | IC50 (KURAMOCHI): > 8 µM | IC50 (L-428): > 8 µM | IC50 (LB2518-MEL): > 8 µM | IC50 (LC-2-ad): > 8 µM | IC50 (LNCaP-Clone-FGC): > 8 µM | IC50 (LS-513): 5.86 µM | IC50 (LU-134-A): > 8 µM | IC50 (Lu-65): > 8 µM | IC50 (MC116): 7.22 µM | IC50 (MHH-PREB-1): 3.84 µM | IC50 (MLMA): > 8 µM | IC50 (MMAC-SF): > 8 µM | IC50 (MZ2-MEL): > 8 µM | IC50 (MZ7-mel): 7.54 µM | IC50 (NB12): > 8 µM | IC50 (NB5): > 8 µM | IC50 (NB69): 7.85 µM | IC50 (NCI-H446): > 8 µM | IC50 (NKM-1): > 8 µM | IC50 (OMC-1): > 8 µM | IC50 (ONS-76): > 8 µM | IC50 (RCC10RGB): > 8 µM | IC50 (SF-539): > 8 µM | IC50 (SK-UT-1): > 8 µM | IC50 (SNB-75): 7.34 µM | IC50 (SW872): > 8 µM | IC50 (TE-1): > 8 µM | IC50 697: 0.654 µM | IC50 (A101D): 7.59 µM | IC50 (A253 cell line): > 8 µM | IC50 (ACN): > 8 µM | IC50 (C8166): > 8 µM | IC50 (TE-8): > 8 µM | IC50 (COLO-668): > 8 µM

CCC/C=C/C=C/C(=O)O[C@H]1/C(=C/C(=O)OC)C[C@H]2C[C@H]([C@@H](C)O)OC(=O)C[C@H](O)C[C@@H]3C[C@H](OC(C)=O)C(C)(C)[C@](O)(C[C@@H]4C/C(=C/C(=O)OC)C[C@H](/C=C/C(C)(C)[C@]1(O)O2)O4)O3 [BRYOSTATIN 1]
IC50 (CW-2): > 0.008 µM | IC50 (Calu-6): > 0.008 µM | IC50 (D-263MG): > 0.008 µM | IC50 (DB): > 0.008 µM | IC50 (DEL): > 0.008 µM | IC50 (GI-1): > 0.008 µM | IC50 (GT3TKB): > 0.008 µM | IC50 (HCE-T): > 0.008 µM | IC50 (HT): > 0.008 µM | IC50 (HuTu80): > 0.008 µM | IC50 (JAR): > 0.008 µM | IC50 (JVM-2): > 0.008 µM | IC50 (KE-37): > 0.008 µM | IC50 (KG-1): > 0.008 µM | IC50 (KP-N-YS): > 0.008 µM | IC50 (KU812 cell line): > 0.008 µM | IC50 (KURAMOCHI): > 0.008 µM | IC50 (L-428): > 0.008 µM | IC50 (LB2518-MEL): > 0.008 µM | IC50 (LC-2-ad): > 0.008 µM | IC50 (LNCaP-Clone-FGC): > 0.008 µM | IC50 (LS-513): > 0.008 µM | IC50 (LU-134-A): > 0.008 µM | IC50 (Lu-65): > 0.008 µM | IC50 (MC116): > 0.008 µM | IC50 (MHH-PREB-1): > 0.008 µM | IC50 (MLMA): > 0.008 µM | IC50 (MMAC-SF): > 0.008 µM | IC50 (MZ2-MEL): > 0.008 µM | IC50 (MZ7-mel): > 0.008 µM | IC50 (NB12): > 0.008 µM | IC50 (NB5): > 0.008 µM | IC50 (NB69): > 0.008 µM | IC50 (NCI-H446): > 0.008 µM | IC50 (NKM-1): > 0.008 µM | IC50 (OMC-1): > 0.008 µM | IC50 (ONS-76): > 0.008 µM | IC50 (RCC10RGB): > 0.008 µM | IC50 (SF-539): > 0.008 µM | IC50 (SK-UT-1): > 0.008 µM | IC50 (SNB-75): > 0.008 µM | IC50 (SW872): > 0.008 µM | IC50 (TE-1): > 0.008 µM | IC50 697: > 0.008 µM | IC50 (A101D): > 0.008 µM | IC50 (A253 cell line): > 0.008 µM | IC50 (ACN): > 0.008 µM | IC50 (C8166): > 0.008 µM | IC50 (TE-8): > 0.008 µM | IC50 (COLO-668): > 0.008 µM

COc1cccc2c1C(=O)c1c(O)c3c(c(O)c1C2=O)C[C@@](O)(C(=O)CO)C[C@@H]3O[C@H]1C[C@H](N)[C@H](O)[C@H](C)O1 [DOXORUBICIN]
IC50 (CW-2): > 1.02 µM | IC50 (Calu-6): 0.254 µM | IC50 (D-263MG): 0.306 µM | IC50 (DB): 0.162 µM | IC50 (DEL): 0.0384 µM | IC50 (GI-1): 0.0697 µM | IC50 (GT3TKB): 0.0672 µM | IC50 (HCE-T): 0.165 µM | IC50 (HT): 0.405 µM | IC50 (HuTu80): 0.00212 µM | IC50 (JAR): 0.626 µM | IC50 (JVM-2): 0.242 µM | IC50 (KE-37): 0.021 µM | IC50 (KG-1): 0.362 µM | IC50 (KP-N-YS): 0.218 µM | IC50 (KU812 cell line): 0.0332 µM | IC50 (KURAMOCHI): 0.127 µM | IC50 (L-428): 0.791 µM | IC50 (LB2518-MEL): 0.413 µM | IC50 (LC-2-ad): 0.00507 µM | IC50 (LNCaP-Clone-FGC): 0.204 µM | IC50 (LS-513): > 1.02 µM | IC50 (LU-134-A): 0.0677 µM | IC50 (Lu-65): 0.346 µM | IC50 (MC116): 0.391 µM | IC50 (MHH-PREB-1): 0.23 µM | IC50 (MLMA): 0.122 µM | IC50 (MMAC-SF): 0.106 µM | IC50 (MZ2-MEL): 0.0339 µM | IC50 (MZ7-mel): 0.113 µM | IC50 (NB12): 0.277 µM | IC50 (NB5): 0.36 µM | IC50 (NB69): 0.0792 µM | IC50 (NCI-H446): > 1.02 µM | IC50 (NKM-1): 0.0295 µM | IC50 (OMC-1): 0.172 µM | IC50 (ONS-76): 0.0189 µM | IC50 (RCC10RGB): > 1.02 µM | IC50 (SF-539): 0.122 µM | IC50 (SK-UT-1): 0.02 µM | IC50 (SNB-75): 0.149 µM | IC50 (SW872): 0.121 µM | IC50 (TE-1): 0.0764 µM | IC50 697: 0.0191 µM | IC50 (A101D): 0.0515 µM | IC50 (A253 cell line): 0.0461 µM | IC50 (ACN): 0.0311 µM | IC50 (C8166): 0.0333 µM | IC50 (TE-8): 0.0075 µM | IC50 (COLO-668): 0.0845 µM
